# Results taken from ChEMBL document CHEMBL1153245, “A profile of the in vitro anti-tumor activity of imidazolium-based ionic liquids” (2010).
# Assays:
# Format in all cases: functional
# [1] = test system: HOP-62; assay: Anticancer activity against human HOP62 cells assessed cell growth at 10 uM after 48 hrs by sulforhodamine B assay relative to control
# [2] = test system: MDA-MB-231; assay: Anticancer activity against human MDA-MB-231 cells assessed cell growth at 10 uM after 48 hrs by sulforhodamine B assay relative to control
# [3] = test system: SF-268; assay: Anticancer activity against human SF268 cells assessed cell growth at 10 uM after 48 hrs by sulforhodamine B assay relative to control
# [4] = test system: TK-10; assay: Anticancer activity against human TK10 cells assessed cell growth at 10 uM after 48 hrs by sulforhodamine B assay relative to control
# [5] = test system: COLO 205; assay: Anticancer activity against human COLO205 cells assessed cell growth at 10 uM after 48 hrs by sulforhodamine B assay relative to control
# [6] = test system: HOP-92; assay: Anticancer activity against human HOP92 cells assessed cell growth at 10 uM after 48 hrs by sulforhodamine B assay relative to control
# [7] = test system: NCI-H460; assay: Anticancer activity against human NCI-H460 cells assessed cell growth at 10 uM after 48 hrs by sulforhodamine B assay relative to control
# [8] = test system: SR; assay: Anticancer activity against human SR cells assessed cell growth at 10 uM after 48 hrs by sulforhodamine B assay relative to control
# [9] = test system: OVCAR-5; assay: Anticancer activity against human OVCAR5 cells assessed cell growth at 10 uM after 48 hrs by sulforhodamine B assay relative to control
# [10] = test system: SN12C; assay: Anticancer activity against human SN12C cells assessed cell growth at 10 uM after 48 hrs by sulforhodamine B assay relative to control
# [11] = test system: A498; assay: Anticancer activity against human A498 cells assessed cell growth at 10 uM after 48 hrs by sulforhodamine B assay relative to control
# [12] = test system: SF-295; assay: Anticancer activity against human SF295 cells assessed cell growth at 10 uM after 48 hrs by sulforhodamine B assay relative to control
# [13] = test system: T47D; assay: Anticancer activity against human T47D cells assessed cell growth at 10 uM after 48 hrs by sulforhodamine B assay relative to control
# [14] = test system: UO-31; assay: Anticancer activity against human UO31 cells assessed cell growth at 10 uM after 48 hrs by sulforhodamine B assay relative to control
# [15] = test system: A549; assay: Anticancer activity against human A549 cells assessed cell growth at 10 uM after 48 hrs by sulforhodamine B assay relative to control
# [16] = test system: NCI-H23; assay: Anticancer activity against human NCI-H23 cells assessed cell growth at 10 uM after 48 hrs by sulforhodamine B assay relative to control
# [17] = test system: OVCAR-3; assay: Anticancer activity against human OVCAR-3 cells assessed cell growth at 10 uM after 48 hrs by sulforhodamine B assay relative to control
# [18] = test system: SK-OV-3; assay: Anticancer activity against human SKOV3 cells assessed cell growth at 10 uM after 48 hrs by sulforhodamine B assay relative to control
# [19] = test system: SW-620; assay: Anticancer activity against human SW620 cells assessed cell growth at 10 uM after 48 hrs by sulforhodamine B assay relative to control
# [20] = test system: SNB-75; assay: Anticancer activity against human SNB75 cells assessed cell growth at 10 uM after 48 hrs by sulforhodamine B assay relative to control
# [21] = test system: NCI/ADR-RES; assay: Anticancer activity against human NCI/ADR-RES cells assessed cell growth at 10 uM after 48 hrs by sulforhodamine B assay relative to control
# [22] = test system: RXF 393; assay: Anticancer activity against human RXF393 cells assessed cell growth at 10 uM after 48 hrs by sulforhodamine B assay relative to control
# [23] = test system: PC-3; assay: Anticancer activity against human PC3 cells assessed cell growth at 10 uM after 48 hrs by sulforhodamine B assay relative to control
# [24] = test system: HL-60(TB); assay: Anticancer activity against human HL-60(TB) cells assessed cell growth at 10 uM after 48 hrs by sulforhodamine B assay relative to control
# [25] = test system: K562; assay: Anticancer activity against human K562 cells assessed cell growth at 10 uM after 48 hrs by sulforhodamine B assay relative to control
# [26] = test system: OVCAR-4; assay: Anticancer activity against human OVCAR4 cells assessed cell growth at 10 uM after 48 hrs by sulforhodamine B assay relative to control
# [27] = test system: LOX IMVI; assay: Anticancer activity against human LOXIMVI cells assessed cell growth at 10 uM after 48 hrs by sulforhodamine B assay relative to control
# [28] = test system: DU-145; assay: Anticancer activity against human DU145 cells assessed cell growth at 10 uM after 48 hrs by sulforhodamine B assay relative to control
# [29] = test system: CAKI-1; assay: Anticancer activity against human Caki1 cells assessed cell growth at 10 uM after 48 hrs by sulforhodamine B assay relative to control
# [30] = test system: HCT-116; assay: Anticancer activity against human HCT116 cells assessed cell growth at 10 uM after 48 hrs by sulforhodamine B assay relative to control
# [31] = test system: MOLT-4; assay: Anticancer activity against human MOLT4 cells assessed cell growth at 10 uM after 48 hrs by sulforhodamine B assay relative to control
# [32] = test system: KM12; assay: Anticancer activity against human KM12 cells assessed cell growth at 10 uM after 48 hrs by sulforhodamine B assay relative to control
# [33] = Anticancer activity against human RPMI8266 cells assessed cell growth at 10 uM after 48 hrs by sulforhodamine B assay relative to control
# [34] = test system: ACHN; assay: Anticancer activity against human ACHN cells assessed cell growth at 10 uM after 48 hrs by sulforhodamine B assay relative to control
# [35] = test system: M14; assay: Anticancer activity against human M14 cells assessed cell growth at 10 uM after 48 hrs by sulforhodamine B assay relative to control
# [36] = test system: UACC-62; assay: Anticancer activity against human UACC62 cells assessed cell growth at 10 uM after 48 hrs by sulforhodamine B assay relative to control
# [37] = test system: SF-539; assay: Anticancer activity against human SF539 cells assessed cell growth at 10 uM after 48 hrs by sulforhodamine B assay relative to control
# [38] = test system: CCRF-CEM; assay: Anticancer activity against human CCRF-CEM cells assessed cell growth at 10 uM after 48 hrs by sulforhodamine B assay relative to control
# [39] = test system: NCI-H522; assay: Anticancer activity against human NCI-H522 cells assessed cell growth at 10 uM after 48 hrs by sulforhodamine B assay relative to control
# [40] = test system: NCI-H322M; assay: Anticancer activity against human NCI-H322M cells assessed cell growth at 10 uM after 48 hrs by sulforhodamine B assay relative to control
# [41] = test system: IGROV-1; assay: Anticancer activity against human IGROV1 cells assessed cell growth at 10 uM after 48 hrs by sulforhodamine B assay relative to control
# [42] = test system: OVCAR-8; assay: Anticancer activity against human OVCAR8 cells assessed cell growth at 10 uM after 48 hrs by sulforhodamine B assay relative to control
# [43] = test system: HCC 2998; assay: Anticancer activity against human HCC2998 cells assessed cell growth at 10 uM after 48 hrs by sulforhodamine B assay relative to control
compound,measurement,setting,value
Cn1cc[n+](Cc2ccccc2)c1.F[P-](F)(F)(F)(F)F,Activity,[1],27.45%
same,Activity,[2],113.82%
same,Activity,[3],108.05%
same,Activity,[4],133.23%
same,Activity,[5],123.33%
same,Activity,[6],109.04%
same,Activity,[7],106.8%
same,Activity,[8],103.39%
same,Activity,[9],101.34%
same,Activity,[10],107.17%
same,Activity,[11],112.56%
same,Activity,[12],115.95%
same,Activity,[13],90.49%
same,Activity,[14],91.78%
same,Activity,[15],105.33%
same,Activity,[16],70.66%
same,Activity,[17],110.15%
same,Activity,[18],109.97%
same,Activity,[19],118.52%
same,Activity,[20],83.18%
same,Activity,[21],90.03%
same,Activity,[22],102.92%
same,Activity,[23],98.08%
same,Activity,[24],44.77%
same,Activity,[25],70.16%
same,Activity,[26],107.15%
same,Activity,[27],100.88%
same,Activity,[28],118.22%
same,Activity,[29],83.75%
same,Activity,[30],107.98%
same,Activity,[31],81.59%
same,Activity,[32],110.94%
same,Activity,[33],131.72%
same,Activity,[34],96.35%
same,Activity,[35],114.25%
same,Activity,[36],101.92%
same,Activity,[37],106.41%
same,Activity,[38],113.04%
same,Activity,[39],99.72%
same,Activity,[40],116.31%
same,Activity,[41],95.43%
same,Activity,[42],108.71%
CCCCCCCCCCCC[n+]1ccn(C)c1.[Cl-],Activity,[1],38.17%
same,Activity,[2],41.54%
same,Activity,[3],58.74%
same,Activity,[4],-1.53%
same,Activity,[5],8.8%
same,Activity,[6],51.88%
same,Activity,[7],23.64%
same,Activity,[8],103.6%
same,Activity,[9],45.62%
same,Activity,[10],19.36%
same,Activity,[11],12.45%
same,Activity,[12],9.99%
same,Activity,[13],24.65%
same,Activity,[14],65.71%
same,Activity,[15],32.62%
same,Activity,[16],28.79%
same,Activity,[17],45.92%
same,Activity,[18],44.54%
same,Activity,[19],44.11%
same,Activity,[20],-10.6%
same,Activity,[21],82.17%
same,Activity,[22],-20.81%
same,Activity,[23],75.39%
same,Activity,[24],51.9%
same,Activity,[25],64.21%
same,Activity,[26],22.69%
same,Activity,[27],23.94%
same,Activity,[28],6.6%
same,Activity,[29],28.77%
same,Activity,[30],17.62%
same,Activity,[31],78.62%
same,Activity,[32],14.03%
same,Activity,[33],116.34%
same,Activity,[34],45.02%
same,Activity,[35],8.94%
same,Activity,[36],31.07%
same,Activity,[37],30.45%
same,Activity,[38],110.51%
same,Activity,[43],31.07%
same,Activity,[39],-19.92%
same,Activity,[40],57.06%
same,Activity,[42],11.53%
